Melting point data for 91 compounds are collected here from a melting point compilation (Tetko et al.; mined from patent text by program, amines drawn as free bases though some values may be those of a salt).

Broadly, the melting point is the temperature of the solid-liquid transition. In turn, `CCOC(=O)N1Cc2ccnnc2C(NN=C(C)C)C1` (stereo unspecified) returned a melting point of 171 to 174 °C.

`Cc1cc2c(c(C)c1Br)C(=O)C(C)(C)O2` had a melting point of 63 to 64 °C.

On to `COc1ccc(OC(CCCN(C)C2C3CCC2CNC3)c2ccc(C#N)cc2)cc1OC` (stereo unspecified), for which the melting point was in the range of 47 to 53 °C.

Compound `CC(=O)Nc1ccc(OC2SCC(OC(C)=O)C(OC(C)=O)C2OC(C)=O)cc1` (stereo unspecified) returned a melting point of 166 °C.

Consider `Cc1nnc(-c2nnc(S)o2)o1`, for which the melting point was in the range of 150 to 151 °C.

In turn, `CCOC(=O)Cc1cc(O)ccc1CCc1cc2cc(C#N)ccc2o1` displayed a melting point of 84 to 86 °C.

Regarding `COc1cc(C(=O)O)ccc1Cc1cn(C)c2ccc(C(=O)NCC3CCCC3)cc12`, the melting point fell in the range of 237 to 239 °C.

`O=C(CC1COCCO1)NC1CCC(CCN2CCN(c3nccc4c3OCC4)CC2)CC1` (stereo unspecified) showed a melting point of 181 °C.

Regarding `COc1cc(C2OCCO2)cc(C#N)c1OC`, the melting point is 76.5 to 77.5 °C.

With `CCC(CC)Nc1ncnc2c1ncn2C`, the melting point is 107 to 109 °C.

For `CN1CCN(S(=O)(=O)c2cccc(NC(=O)c3cnn4c(C(F)(F)F)cc(-c5ccc(Cl)cc5)nc34)c2)CC1`, the melting point was determined as 195 °C.

The compound `CN(C)CCOCC(O)c1ccc2cc(OCc3ccccc3)ccc2c1` (stereo unspecified) returned a melting point of 100 °C.

Consider `O=C(O)C1=CC=CC(C(=O)c2ccc(O)c(O)c2)(C(=O)c2ccc(O)c(O)c2)C1`, for which the melting point lay within 254 to 256 °C.

`CCOC(=O)CN1C(=O)[C@@H](N)CCc2ccccc21` gave a melting point of 106 to 108 °C.

As for `COc1ccc(N2CCN(CC(O)COc3cccc4cc(C(C)=O)oc34)CC2)cc1` (stereo unspecified), the melting point was in the range of 173 to 175 °C.

The compound `CCCCOc1ccc(Cc2nn(-c3ccccc3Cl)c(=S)o2)cc1` yielded a melting point of 69 °C.

Regarding `CCOC(=O)CC(=O)c1cc(F)c(F)c(C)c1F`, the melting point was in the range of 38 to 39 °C.

As to `O=C1c2ccccc2C(=O)N1C(Cc1ccccc1)C[PH](=O)O` (stereo unspecified), the melting point is 127 to 130 °C.

The compound `COC(=O)c1c(C(F)F)nc(C(F)(F)F)c(C(=O)Cl)c1CC(C)C` registered a melting point of 71 to 75 °C.

As for `CCCn1nc(C(C)C)cc1Cc1ccc(-c2ccccc2-c2nnn[nH]2)cc1`, the melting point was in the range of 147 to 149 °C.

`CCN(CC)C(=O)Nc1cc(-c2c(-c3cccc(C)c3)nc3cccnn23)ccn1` displayed a melting point of 166 to 167 °C.

`CCOC(=O)C(C)Oc1ncn(-c2ccccc2)n1` (stereo unspecified) showed a melting point of 88 to 89 °C.

In turn, `CCCNON=C(C)C1=CCCN(C)C1` had a melting point of 78 to 79 °C.

For `Oc1cccc2c1CCCC2CN1CCCCC1` (stereo unspecified), the melting point lay in the range of 129 to 131 °C.

For `CCOC(=O)c1cc2c(C=O)c(OC[C@H]3CO3)ccc2[nH]1`, the melting point was in the range of 152 to 154 °C.

Compound `CCCOc1cc(CCCOc2c(CC(=O)O)cccc2OC)n(Cc2ccc(Cl)cc2)n1` displayed a melting point of 131 to 132 °C.

Turning to `COCCc1nc2c(N)nc3ccccc3c2n1CCOCCN(C(N)=O)c1ccccc1`, the melting point fell in the range of 171 to 174 °C.

As to `CCOC(=O)C(=O)c1cc(F)cc2cccnc12`, the melting point was in the range of 114 to 117 °C.

`COc1cc2cc3c(=O)c(C#N)c[nH]c3cc2cc1O` showed a melting point above 300 °C.

`CC(C)(C)c1ccnc(C(=O)c2[nH]c3ccc(Cl)cc3c2CC(=O)O)c1`: the melting point fell in the range of 209 to 211 °C.

`CONC(=O)c1nsc2ccc(-n3c(=O)cc(C(F)(F)F)n(C)c3=O)cc12` had a melting point of 125 to 127 °C.

Compound `COc1cc2nc(N)nc(-c3cccc(Br)c3)c2cc1OC` yielded a melting point of 246 to 249 °C.

Regarding `COc1cc2c(cc1Br)-c1cc3c(n1CC2)C(=O)N(C(C)(C)C)CCC3`, the melting point is 163 to 165 °C.

Compound `COC1CCC(S(=O)(=O)c2ccccc2)O1` (stereo unspecified) yielded a melting point of 68 °C.

In turn, `C=CCCn1ncc2c(N)c(C(=O)OCC=C)c(C)nc21` came in with a melting point of 64 to 64.5 °C.

Compound `OCCNc1nnc(-c2ccc(F)c(F)c2Nc2ccc(I)cc2F)o1` yielded a melting point of 100 to 103 °C.

Compound `CCCc1c(O)c(C(C)=O)cc2ccc(C(=O)OC)nc12` yielded a melting point of 110 to 111 °C.

The compound `CCCc1c(OCc2ccc(CBr)cc2)ccc(C(C)=O)c1O` had a melting point of 98 to 99 °C.

Take `O=C1C(=CNCCO)Cc2c(Cl)cccc21`: the melting point was 164 to 166 °C.

The compound `O=C(O)CCC(=O)c1cc(Cl)ccc1O` registered a melting point of 172 to 173 °C.

Turning to `NC(=O)c1ccnc(-c2csc(N=C(N)N)n2)c1`, the melting point lay in the range of 169 to 171 °C.

For `O=c1[nH]c2ncc(-c3ccc(-c4n[nH]c(CN5CCOCC5)n4)cc3)nc2n1CC1CCOCC1`, the melting point was in the range of 281 to 283 °C.

The compound `NS(=O)(=O)c1ccc(-n2nc(C(F)(F)F)cc2-c2ccc(-c3cnco3)cc2)cc1` registered a melting point of 128 to 130 °C.

Consider `COC(=O)N[C@@H](CSc1ccccc1)[C@H](O)CCl`, for which the melting point lay in the range of 113 to 114 °C.

For `COc1ccc(Nc2ccc(C)cc2)cc1`, the melting point was 81 to 82 °C.

Compound `Cc1c(-n2ccnc2)n(CCOc2ccc(C(=O)O)cc2)c2ccccc12` gave a melting point above 300 °C.

The compound `CCNc1nc(OC)c(C(=O)NCC2CCCN2C2CCCCC2)nc1Cl` (stereo unspecified) yielded a melting point of 164 to 165 °C.

`Cc1cccc(Cc2ccc(-c3cnn4c(O)ncnc34)cc2)c1` displayed a melting point of 271 to 278 °C.

In the case of `Cc1cc(OCCc2ccccc2)ccc1[N+](=O)[O-]`, the melting point lay in the range of 70 to 72 °C.

Turning to `COc1ccc(-c2cc(C#N)c(=O)[nH]c2C)cc1`, the melting point lay within 258 to 259 °C.

The compound `CC(C)(C)N1CC=C(c2c[nH]c(-c3ccc(F)cc3)c2-c2ccncc2)CC1` yielded a melting point of 242 to 244 °C.

`CC[C@@H](c1ccccc1)N(Cc1ccc(C(=O)O)cc1)S(=O)(=O)c1ccc(C(=O)O)cc1` showed a melting point of 102 to 104 °C.

`O=[N+]([O-])c1ccc(Nc2c(F)c(F)nc(F)c2F)c(C(F)(F)F)c1` had a melting point of 104 to 105 °C.

For `CSc1cc(Oc2cccc(C(F)(F)F)c2)nc(C(=O)Nc2ccccc2)c1`, the melting point fell in the range of 115 to 119 °C.

In turn, `CCCC1=NN(c2ccc(Br)cc2)C(=O)C1=CNc1ccccc1CC` displayed a melting point of 127 °C.

`CCOC(=O)c1ccc(N)c(C(CCNC(=O)OC(C)(C)C)=NOC(C)=O)c1`: the melting point lay within 130 to 135 °C.

Regarding `Nc1c(-c2ccc(Cl)cc2)nc2ccc(F)cc2c1C(=O)O`, the melting point was in the range of 241 to 243 °C.

`COCC1(C)CCCSc2cc(C#Cc3ccc(C(=O)O)cc3)ccc21` (stereo unspecified) gave a melting point of 182 to 183 °C.

For `CCCCCCCCCCCCCCCCOC(=O)c1cnc(C(=O)OCCCCCCCCCCCCCCCC)c2ccccc12`, the melting point is 80.7 to 81.4 °C.

As to `CSc1cnc2cc(C)sc2c1O`, the melting point lay in the range of 222 to 225 °C.

`COC(=O)C1Cc2c([nH]c3ccccc23)C(c2ccc(Cl)cc2Cl)N1` (stereo unspecified): the melting point was in the range of 128 to 130 °C.

Compound `CSc1n[nH]c(=O)n1C` gave a melting point of 97 °C.

`Cc1cc(-n2ccnc2)c2cccc(OCc3c(Cl)ccc(S(=O)(=O)N4CCC[C@H]4C(=O)N(C)C)c3Cl)c2n1` had a melting point of 88 °C.

`CON(C)C(=O)Nc1ccc(CN2OCC(C)(C)C2=O)c(Cl)c1` gave a melting point of 93 to 95 °C.

`O=C(NN=Cc1ccc2ccccc2n1)c1ccccc1[N+](=O)[O-]` registered a melting point of 195 to 196 °C.

Compound `CC(=O)N1Cc2cccc3c2c(cn3C)C1` had a melting point of 125 to 126 °C.

`COn1cc(C(=O)O)c(=O)c2cc3cc(F)c(F)cc3nc21` gave a melting point of 325 to 327 °C.

`COc1cc(C=CC(=O)Nc2cnc3ccc(C)cc3c2-c2ccccc2C)cc(OC)c1OC(C)=O` showed a melting point of 242 to 243 °C.

`Cc1ccc(C(CCN2CCCC2)c2ncc[nH]2)cc1` (stereo unspecified) gave a melting point of 125 to 127 °C.

In turn, `CN1CCN(c2nn(-c3ccc(O)cc3)c3ccccc23)CC1` showed a melting point of 191 to 193 °C.

The compound `COc1cccc(C=C2OC(=O)c3ccccc32)c1` had a melting point of 119 to 123 °C.

Take `CSc1ccc(NC(=O)C2(C)CC2)cc1C(F)(F)F`: the melting point lay in the range of 97 to 98 °C.

`CCCc1c(C(=O)CC(C)OC)c2ccc(C(N)=O)cc2n1Cc1cc2c(cc1Cl)OCO2` (stereo unspecified): the melting point was in the range of 190 to 192 °C.

The compound `CC(C(=O)O)c1ccc(C(=O)c2ccc3ccccc3c2)cc1` (stereo unspecified) returned a melting point of 150 °C.

In turn, `CCCCCC(CNC(=O)Nc1cc(C(N)=O)ccc1C(C)(C)C)c1ccc(OC)cc1OC` (stereo unspecified) had a melting point of 223 to 224 °C.

With `CCOc1c(C)cnc(CO)c1C`, the melting point is 58 to 59 °C.

The compound `CN1C(=O)CCc2cc(S(=O)(=O)Cl)ccc21` came in with a melting point of 130 °C.

Consider `O=C(NCC(F)(F)F)c1ccc(C(F)(F)F)cc1`, for which the melting point came to 117 °C.

Compound `CCOc1c(C2=C(C(C)(C)C)C(C)(C)CO2)oc2ccc(OC)cc12` displayed a melting point of 60 to 61 °C.

In the case of `CCOC(=O)c1nc(C=Cc2ccc(Cl)cc2)oc1C`, the melting point was 105 to 106 °C.

Compound `COC(=O)c1nn(C)nc1C(=O)O` gave a melting point of 125 to 126 °C.

`Cc1cc2cc(CN(C)C)cnc2cc1NC(=O)c1ccc(-c2ccc(F)cc2)cc1` yielded a melting point of 183 to 186 °C.

Turning to `Cc1cc(-n2ccnc2)c2cccc(OCc3c(Cl)ccc(S(=O)(=O)N4CCC[C@H]4C(=O)NCCN(C)C)c3Cl)c2n1`, the melting point is 88 °C.

`Cc1cc2c(Cl)c3ccccc3c(C=O)c2cc1C` showed a melting point of 150 to 153 °C.

Consider `CC1(C)OC(=O)C(=[N+]=[N-])C(=O)O1`, for which the melting point is 93 to 94 °C.

In the case of `CNc1cc(C=O)cc(S(N)(=O)=O)c1Oc1ccccc1`, the melting point was in the range of 166 to 167 °C.

As to `Cc1ccc(-c2ccnc3c(C(=O)c4cccs4)cnn23)cc1NC(=O)c1ccccc1`, the melting point was 216 to 218 °C.

As to `O=CC1=C(Cl)Nc2cc(Cl)c(F)cc2C1`, the melting point stood at 260 °C.

In the case of `CNC(=S)NS(=O)(=O)c1cc(CCNC(=O)c2cc(Cl)ccc2OC)ccc1-c1ccc(OC)cc1`, the melting point is 185 to 188 °C.

`O=C(CCN1CCNCC1)Nc1ccc2c(c1)C(=O)c1cc(NC(=O)CCN3CCNCC3)ccc1C2=O` had a melting point of 218 °C.

Turning to `CCCc1c(-c2cc(=O)c3c(O)cc(OCC(=O)OCC)cc3o2)ccc(OC)c1O`, the melting point came to 138 °C.
